{
  "source": "patent US11578078B2",
  "about": "“Heterocyclic RIP1 inhibitory compounds” (Rigel Pharmaceuticals, Inc., priority 2019, dated 2023)",
  "test": "in vivo pharmacokinetics, plasma and brain exposure",
  "parameters": "species or system rodents",
  "data": [
    {"smiles": "CN1C(=O)[C@@H](NC(=O)c2nn(Cc3ccccc3)cc2F)COc2ccc(N3CCC4(CCOCC4)C3)cc21", "note": "[Compound I-1, (S)-1-benzyl-4-fluoro-N-(5-methyl-4-oxo-7-(8-oxa-2-azaspiro[4.5]decan-2-yl)-2,3,4,5-tetrahydrobenzo[b][1,4]oxazepin-3-yl)-1H-pyrazole-3-carboxamide]", "values": [
      {"measurement": "Ratio (Brain/Plasma)", "setting": "brain AUC0-6 / plasma AUC0-6", "result": 0.46},
      {"measurement": "PLASMA CI", "result": 16.4}
    ]},
    {"smiles": "CN1C(=O)[C@@H](NC(=O)c2nn(Cc3ccccc3)cc2F)COc2ccc(N3CC4(CCOCC4)C3)cc21", "note": "[Compound I-2, (S)-1-benzyl-4-fluoro-N-(5-methyl-4-oxo-7-(7-oxa-2-azaspiro[3.5]nonan-2-yl)-2,3,4,5-tetrahydrobenzo[b][1,4]oxazepin-3-yl)-1H-pyrazole-3-carboxamide]", "values": [
      {"measurement": "BRAIN AUC0-6", "setting": "brain", "result": 157},
      {"measurement": "PLASMA CI", "result": 57.7},
      {"measurement": "Kp", "setting": "rodents, brain AUC0-6 / plasma AUC0-6, read-out: Ratio (Brain/Plasma)", "result": 0.56}
    ]},
    {"smiles": "CN1C(=O)[C@@H](NC(=O)n2cc(Cc3ccc(F)cc3)cn2)COc2ccc(N3CC4(CCOCC4)C3)cc21", "note": "[Compound I-3, (S)-4-(4-fluorobenzyl)-N-(5-methyl-4-oxo-7-(7-oxa-2-azaspiro[3.5]nonan-2-yl)-2,3,4,5-tetrahydrobenzo[b][1,4]oxazepin-3-yl)-1H-pyrazole-1-carboxamide]", "values": [
      {"measurement": "Ratio (Brain/Plasma)", "setting": "brain AUC0-6 / plasma AUC0-6", "result": 0.93},
      {"measurement": "PLASMA CI", "result": 19.0}
    ]}
  ]
}
